Experimental data published in patent US9382208B1, “Negative allosteric modulators of metabotropic glutamate receptor 2” (Vanderbilt University, priority 2015, dated 2016).
Like-named read-outs stand apart in the source and are kept apart here.

Columns and labels:
rat = rat FST, normal animals; cited from earlier work
mouse = mouse TST, normal animals; cited from earlier work
[1] = system: central mGlu2 and mGlu3 receptors; conditions: in vivo; cited from earlier work
C57B16/J mice = conditions: FST; cited from earlier work
Helpless (H) mice = conditions: cited from earlier work; for activity in the tail suspension test: Helpless (H) mice
mice = conditions: cited from earlier work
[2] = system: Aβ-induced neurodegeneration; conditions: cited from earlier work
[3] = treatment for 7 days; cited from earlier work
[4] = system: olfactory bulbectomized rats; conditions: repeated administration for 14 days; cited from earlier work
[5] = system: social isolation-reared mice; conditions: cited from earlier work
[6] = CFS model; cited from earlier work
[7] = system: group II mGlu receptors (mGlu2 and mGlu3); conditions: cited from earlier work
rat mGlu2 = target: T1, rat mGlu2 (Rattus norvegicus, UniProt P31421); assay: mGlu2 Ca2+ flux assay; type: cell-based; conditions: for IC50: Gα15 HEK293 cells stably expressing rat mGlu2, glutamate EC80 addition, read-out: rat mGlu2 IC50; for remaining activity at 30 µM: amplitude of response in the presence of 30 μM test compound as percentage of maximal response to glutamate, read-out: rat mGlu2 Glu max (%)
T1 construct: expressed in transfected cells
Outline: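 Gα15 HEK293 cells stably expressing rat mGlu2, Fluo-4 loaded; compound added, then glutamate at EC20 after 2.3 min and EC80 afterward, calcium flux read as F/F0. Peak amplitude around EC80 addition normalized to glutamate max; IC50 by unconstrained 4-parameter fit, top concentration 30 μM.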

T1 sequence (P31421 19-872): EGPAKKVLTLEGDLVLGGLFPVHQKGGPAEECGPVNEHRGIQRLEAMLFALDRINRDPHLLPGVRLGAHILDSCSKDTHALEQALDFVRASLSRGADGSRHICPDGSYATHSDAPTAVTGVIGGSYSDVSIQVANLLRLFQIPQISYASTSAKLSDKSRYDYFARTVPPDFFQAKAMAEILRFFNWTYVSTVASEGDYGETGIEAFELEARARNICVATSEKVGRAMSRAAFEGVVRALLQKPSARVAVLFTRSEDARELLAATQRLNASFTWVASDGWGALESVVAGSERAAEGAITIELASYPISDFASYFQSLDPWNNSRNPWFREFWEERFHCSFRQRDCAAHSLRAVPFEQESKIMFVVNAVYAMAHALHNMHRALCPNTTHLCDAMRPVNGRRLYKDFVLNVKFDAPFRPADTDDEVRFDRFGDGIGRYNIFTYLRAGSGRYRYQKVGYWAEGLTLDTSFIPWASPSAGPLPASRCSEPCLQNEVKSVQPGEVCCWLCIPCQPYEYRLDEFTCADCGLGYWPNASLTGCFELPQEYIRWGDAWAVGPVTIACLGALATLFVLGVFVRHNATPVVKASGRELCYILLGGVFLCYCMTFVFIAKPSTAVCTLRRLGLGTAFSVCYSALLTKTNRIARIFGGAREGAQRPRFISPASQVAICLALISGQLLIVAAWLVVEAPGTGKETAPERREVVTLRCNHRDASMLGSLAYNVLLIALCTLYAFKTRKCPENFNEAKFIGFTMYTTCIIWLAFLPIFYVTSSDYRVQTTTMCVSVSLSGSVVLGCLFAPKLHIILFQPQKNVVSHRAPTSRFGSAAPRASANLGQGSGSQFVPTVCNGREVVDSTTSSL

SMILES | IC50 (rat mGlu2) | remaining activity at 30 µM (rat mGlu2) | further results
N[C@](CC1c2ccccc2Oc2ccccc21)(C(=O)O)[C@H]1C[C@@H]1C(=O)O [LY341495] | – | – | antidepressant-like effects (rat): Antidepressant-like effects; antidepressant-like effects (mouse): Antidepressant-like effects; hypolocomotor effect of mGlu2/3 agonist (LY379268) [1]: achieved the same result; immobility time (C57B16/J mice): dose-dependently reduced; activity in the tail suspension test (Helpless (H) mice): active; antidepressant effect in helpless mice (Helpless (H) mice; acute administration): potent antidepressant effect; marble-burying behavior (mice): significantly reduce marble-burying behavior; Aβ-induced neurodegeneration [2]: prevented
Cc1cc(-c2cccc(C3=Nc4cc(C)c(C(F)(F)F)cc4NC(=O)C3)c2)cc(C)n1 [RO4491533] | – | – | hypolocomotor effect of mGlu2/3 agonist (LY379268) [1]: reversed the hypolocomotor effect; immobility time (C57B16/J mice): dose-dependently reduced; activity in the tail suspension test (Helpless (H) mice): active
CCS(=O)(=O)N(Cc1cccnc1)c1cccc(-c2ccc(C#N)cc2)c1 [LY566332] | – | – | Aβ-induced neurodegeneration [2]: amplified
CNCCC(Oc1ccc(C(F)(F)F)cc1)c1ccccc1 (stereo not drawn) [fluoxetine] | – | – | antidepressant effect in helpless mice (Helpless (H) mice; chronic (21 days) treatment): full antidepressant effect
N[C@]1(C(=O)O)[C@H]2[C@@H](C[C@H]1OCc1ccc(Cl)c(Cl)c1)[C@]2(F)C(=O)O [MGS0039] | – | – | antidepressant-like effects (rat): Antidepressant-like effects; antidepressant-like effects (mouse): Antidepressant-like effects; number of escape failures [3]: significantly reduced; hyperactivity in the open field test [4]: attenuated the hyperactivity; learning deficit in the passive avoidance test [4]: attenuated the learning deficit; immobility in the FST [5]: reversed the increased immobility; marble-burying behavior (mice): reduced marble-burying behavior; spontaneous locomotor activity (mice): no significant change; freezing behavior [6]: significantly decreased
CCCCCCCOC(=O)[C@@]1(F)[C@@H]2C[C@@H](OCc3ccc(Cl)c(Cl)c3)[C@@](N)(C(=O)O)[C@@H]21 [BCI-838] | – | – | levels of monomeric and oAβ peptides in the hippocampus and cortex ([7]; three months of treatment, two AD mouse models): decreased; Dutch APP transgene-associated learning and memory impairment ([7]; three months of treatment): reversed; anxiolytic effects ([7]; three months of treatment): anxiolytic effects; hippocampal progenitor cell proliferation ([7]; wild-type and Alzheimer's diseased mice, 3 months): stimulated
CN1C(=O)CN=C(c2ccccc2)c2cc(Cl)ccc21 [diazepam] | – | – | freezing behavior [6]: significantly decreased
NC(=O)c1cn(-c2ccc(F)cc2)c2ccc(NCCN3CCOCC3)cc2c1=O [Compound 28, 1-(4-fluorophenyl)-6-((2-morpholinoethyl)amino)-4-oxo-1,4-dihydroquinoline-3-carboxamide] | 1.15 µM | 0.77% | –
CN(c1ccncc1)c1ccc2c(c1)c(=O)c(C(N)=O)cn2-c1ccc(F)cc1 [Compound 18, 1-(4-fluorophenyl)-6-(methyl(pyridin-4-yl)amino)-4-oxo-1,4-dihydroquinoline-3-carboxamide] | 1.15 µM | 1.73% | –
CC1(C)CN(Cc2ccc3c(c2)c(=O)c(C(N)=O)cn3-c2ccc(F)cc2)CCO1 [Compound 90, 6-((2,2-dimethylmorpholino)methyl)-1-(4-fluorophenyl)-4-oxo-1,4-dihydroquinoline-3-carboxamide] | 0.142 µM | 2.01% | –
CS(=O)(=O)C1CCN(Cc2ccc3c(c2)c(=O)c(C(N)=O)cn3-c2ccc(F)cc2)CC1 [Compound 76, 1-(4-fluorophenyl)-6-((4-(methylsulfonyl)piperidin-1-yl)methyl)-4-oxo-1,4-dihydroquinoline-3-carboxamide] | 1.12 µM | 1.29% | –
NC(=O)c1cn(-c2ccc(F)cc2)c2ccc(CN3CCCCC3)cc2c1=O [Compound 4, 1-(4-fluorophenyl)-4-oxo-6-(piperidin-1-ylmethyl)-1,4-dihydroquinoline-3-carboxamide] | > 10 µM | 53.8% | –
C[C@@H]1CN(Cc2cc(F)c3c(c2)c(=O)c(C(N)=O)cn3-c2ccc(F)cc2)C[C@H](C)O1 [Compound 92, 6-((cis-2,6-dimethylmorpholino)methyl)-8-fluoro-1-(4-fluorophenyl)-4-oxo-1,4-dihydroquinoline-3-carboxamide] | 4.41 µM | 2.23% | –
Cc1cc(-n2cc(C(N)=O)c(=O)c3cc(CCc4cnc(C)nc4)ccc32)sn1 [Compound 22, 1-(3-methylisothiazol-5-yl)-6-(2-(2-methylpyrimidin-5-yl)ethyl)-4-oxo-1,4-dihydroquinoline-3-carboxamide] | 0.419 ± 0.046 µM | 1.2 ± 0.5% | –
NC(=O)c1cn(-c2ccc(F)cc2)c2ccc(CN3CCCC4CCCCC43)cc2c1=O (stereo not drawn) [Compound 67, 1-(4-fluorophenyl)-6-((octahydroquinolin-1(2H)-yl)methyl)-4-oxo-1,4-dihydroquinoline-3-carboxamide] | 0.617 µM | 2.4% | –
NC(=O)c1cn(-c2ccc(F)cc2)c2ccc(Oc3cccnc3)cc2c1=O [Compound 56, 1-(4-fluorophenyl)-4-oxo-6-(pyridin-3-yloxy)-1,4-dihydroquinoline-3-carboxamide] | 0.882 ± 0.16 µM | 1.84 ± 0.47% | –
NC(=O)c1cn(-c2ccc(F)cc2)c2ccc(NCc3cccnc3)cc2c1=O [Compound 17, 1-(4-fluorophenyl)-4-oxo-6-((pyridin-3-ylmethyl)amino)-1,4-dihydroquinoline-3-carboxamide] | 0.421 µM | 1.05% | –
NC(=O)c1cn(-c2ccc(F)cc2)c2ccc(CCc3ccc(C(F)(F)F)nc3)cc2c1=O [Compound 47, 1-(4-fluorophenyl)-4-oxo-6-(2-(6-(trifluoromethyl)pyridin-3-yl)ethyl)-1,4-dihydroquinoline-3-carboxamide] | 1.55 µM | 1.21% | –
NC(=O)c1cn(-c2ccc(F)cc2)c2ccc(COc3cccnc3F)cc2c1=O [Compound 39, 1-(4-fluorophenyl)-6-(((2-fluoropyridin-3-yl)oxy)methyl)-4-oxo-1,4-dihydroquinoline-3-carboxamide] | 0.883 µM | 0.83% | –
Cc1ncc(CCc2cc(F)c3c(c2)c(=O)c(C(N)=O)cn3-c2ccc(F)cc2)cn1 [Compound 49, 8-fluoro-1-(4-fluorophenyl)-6-(2-(2-methylpyrimidin-5-yl)ethyl)-4-oxo-1,4-dihydroquinoline-3-carboxamide] | 0.155 µM | 1.53% | –
Cc1ncc(-c2ccc3c(c2)c(=O)c(C(N)=O)cn3-c2ccc(F)cc2)cn1 [Compound 62, 1-(4-fluorophenyl)-6-(2-methylpyrimidin-5-yl)-4-oxo-1,4-dihydroquinoline-3-carboxamide] | > 10 µM | 30.3% | –
NC(=O)c1cn(-c2ccc(F)cc2)c2ccc(CN3CCN(C4CC4)CC3)cc2c1=O [Compound 66, 6-((4-cyclopropylpiperazin-1-yl)methyl)-1-(4-fluorophenyl)-4-oxo-1,4-dihydroquinoline-3-carboxamide] | 1.29 µM | 1.89% | –
NC(=O)c1cn(-c2ccc(F)cc2)c2ccc(COc3ccnc(C(F)(F)F)c3)cc2c1=O [Compound 34, 1-(4-fluorophenyl)-4-oxo-6-(((2-(trifluoromethyl)pyridin-4-yl)oxy)methyl)-1,4-dihydroquinoline-3-carboxamide] | 0.534 µM | 1.97% | –
CC1CN(Cc2cc(F)c3c(c2)c(=O)c(C(N)=O)cn3-c2ccc(F)cc2)CCO1 (stereo not drawn) [Compound 93, 8-fluoro-1-(4-fluorophenyl)-6-((2-methylmorpholino)methyl)-4-oxo-1,4-dihydroquinoline-3-carboxamide] | 6.52 µM | 0.14% | –
NC(=O)c1cn(-c2ccc(F)cc2)c2ccc(CCc3ccnc(C(F)(F)F)c3)cc2c1=O [Compound 46, 1-(4-fluorophenyl)-4-oxo-6-(2-(2-(trifluoromethyl)pyridin-4-yl)ethyl)-1,4-dihydroquinoline-3-carboxamide] | 0.269 µM | 0.78% | –
